Measured values as given in article PMC10142861, “Synthesis, Antiproliferative Effect and In Silico LogP Prediction of BIM-23052 Analogs Containing Tyr Instead of Phe” (Pharmaceutics, 2023).
Values joined by “and” are separate entries in the source; they are usually repeats but may differ in a detail not shown here. Equal entries are not always repeated. Where two headings read alike, the source gives them in different places. Square brackets hold non-standard residues; d marks the D form. Peptide text beside a SMILES is read from it.

How the values were obtained:
in vitro = conditions: mouse
Text: (§1) The breast cancer cells MDA-MB-231 (ATCC: HTB-26) and MCF-7 (ATCC: HTB-22) were used to determine antiproliferative activity under in vitro conditions. The breast epithelial cells (MCF-10A, ATCC: CRL-10317) and mouse embryonic fibroblasts (BALB/c 3T3 clone A31, ATCC: CCL-163) were used as control. Cell cultures were purchased from American Type Cultures Collection (ATCC, Manassas, Virginia, USA). In cell culture, growth medium DMEM-high glucose, 10% (v/v) FBS and antibiotics (Sigma-Aldrich, Schnelldorf, Germany) were used. Cells were incubated at 37 °C, 5% CO2 and 95% humidity. Cells were grown in plastic flasks with a surface of 75 cm^2 (Deltalab S.L., Barcelona, Spain).
A safety test was performed on the method BALB/c 3T3 Neutral Red Uptake cytotoxicity Assay. The data generated from the in vitro cytotoxicity assay can be used to determine the safety level of the investigated substances and can predict the starting doses for in vivo toxicity assays. The cells (BALB/c 3T3, clone A31) were seeded at 1 × 10^4 cells/100 μL/well in 96-well flat-bottomed microplates. The plates were placed in a thermostat at 37 °C, 5% CO2 and 95% humidity for 24 h. Peptides were pre-dissolved in DMSO and then culture medium (DMEM) was added. The cells were treated with the BIM-23052 analogs at concentrations from […]. The treated cell culture was incubated for 24 h in a thermostat under standard conditions. The microplates were then washed twice with PBS, and Neutral Red Desorb (1% acetic acid/50% ethanol/49% water) was added. Absorbance was measured by a microplate reader at a wavelength of 540 nm.
The safety test of BIM-23052 analogues was carried out by Neutral Red Uptake cytotoxicity Assay. Cell cultures were incubated with the tested peptide analogs for 24 h.
Mean values are presented ± SD from three independent experiments, n = 6.

[1] = system: MCF-10A breast epithelial cells; conditions: 72 h
Text: as §1
(§2) Cell viability was determined by a colorimetric MTT-dye reduction assay. The method is based on an enzyme reaction leading to the reduction of […] (MTT) to formazan crystals. The concentration of formazan, which is directly proportional to cell viability, was determined by a spectrophotometric method. Cells (MCF-7, MDA-MB-231 and MCF-10A) were seeded at a 1 × 10^3 cells/100 µL/well in 96-well microplates. The plates were placed in a thermostat under standard conditions for 24 h. Cells were then treated with the peptide analogs at concentrations ranging from 7.5 to 2000 μm. The cells were then incubated in a thermostat for 72 h. The formazan concentration was measured spectrophotometrically by a microplate reader at a wavelength of 540 nm. The antiproliferative potential of BIM-23052 analogs was presented as IC50 values, calculated using GraphPad Prizm Software (San Diego, CA, USA).
(§3) The antiproliferative activity of BIM-23052 analogs was studied by MTT assay. The normal and tumor cell cultures were incubated with the peptide analogs with a concentration range from 7.5 to 2000 μm for 72 h. The antiproliferative activity was determined (Figure 3 and Table 3).
(§4) Figure 3 Dose–response curves for antiproliferative activity of BIM-23052 analogs determined in MCF-10A (ATCC® CRL-10317^TM), MCF-7 (ATCC® HTB-22^TM) and MDA-MB-231 (ATCC® HTB-26^TM) cell lines. Mean values are presented ± SD from three independent experiments, n = 6.

[2] = system: MCF-7 breast cancer cells; conditions: for IC50: 72 h
Text: as §1, §2, §3, §4

[3] = system: MDA-MB-231 breast cancer cells; conditions: for IC50: 72 h
Text: as §1, §2, §3, §4

[4] = read-out: Mean IC50 ± SD, Antiproliferative Effect, MCF-10A, MTT, 7.5 to 2000 μm, absorbance 540 nm, mean ± SD, three independent experiments, n = 6
[5] = read-out: Mean IC50 ± SD, Antiproliferative Effect, MCF-7, MTT, 7.5 to 2000 μm, absorbance 540 nm, mean ± SD, three independent experiments, n = 6
[6] = read-out: Mean IC50 ± SD, Antiproliferative Effect, MDA-MB-231, MTT, 7.5 to 2000 μm, absorbance 540 nm, mean ± SD, three independent experiments, n = 6
[7] = SI = IC50 MCF-10A/IC50 MDA-MB-231
[8] = BALB/c 3T3 clone A31 mouse embryonic fibroblasts

IC50 at 24 h (in vitro) | IC50 [2] [µM] | IC50 [3] [µM] | SMILES | IC50 [1] [µM] | Selectivity index SI, MCF-7 ([2]; 2 h) | Selectivity index SI, MDA-MB-231 ([3]; 2 h) | IC50 [1, 4] [µM] | IC50 [2, 5] [µM] | IC50 [3, 6] [µM] | Selectivity index SI, MCF-7 ([2]; SI = IC50 MCF-10A/IC50 MCF-7) | Selectivity index SI, MDA-MB-231 [3, 7] | IC50 at 24 h (in vitro; [8]) [µM]
483 ± 32.1 µM | 120 ± 6.53 | 335 ± 15.4 | C[C@@H](O)[C@H](NC(=O)[C@H](Cc1ccccc1)NC(=O)[C@@H](NC(=O)[C@H](CCCCN)NC(=O)[C@@H](Cc1c[nH]c2ccccc12)NC(=O)[C@H](Cc1ccccc1)NC(=O)[C@H](Cc1ccccc1)NC(=O)[C@H](N)Cc1ccccc1)[C@@H](C)O)C(N)=O [BIM-23052, D-Phe-Phe-Phe-D-Trp-Lys-Thr-Phe-Thr-NH2] (H-[dF]FF[dW]KTFT-NH2) | 204 ± 6.32 | 1.7 | 0.61 |  |  |  |  |  | 
1200 ± 100 µM | 426 ± 23.9 | 798 ± 24.4 | C[C@@H](O)[C@H](NC(=O)[C@H](Cc1ccc(O)cc1)NC(=O)[C@@H](NC(=O)[C@H](CCCCN)NC(=O)[C@@H](Cc1c[nH]c2ccccc12)NC(=O)[C@H](Cc1ccc(O)cc1)NC(=O)[C@H](Cc1ccc(O)cc1)NC(=O)[C@H](N)Cc1ccccc1)[C@@H](C)O)C(N)=O [D61, D-Phe-Tyr^2-Tyr^3-D-Trp-Lys-Thr-Tyr^7-Thr-NH2] (H-[dF]YY[dW]KTYT-NH2) | 555 ± 21.3 | 1.3 | 0.69 |  |  |  |  |  | > 1000
975 ± 81.7 µM | 527 ± 54.2 | 849 ± 21.2 | C[C@@H](O)[C@H](NC(=O)[C@H](Cc1ccc(O)cc1)NC(=O)[C@@H](NC(=O)[C@H](CCCCN)NC(=O)[C@@H](Cc1c[nH]c2ccccc12)NC(=O)[C@H](Cc1ccc(O)cc1)NC(=O)[C@H](Cc1ccc(O)cc1)NC(=O)[C@H](N)Cc1ccc(O)cc1)[C@@H](C)O)C(N)=O [D91, D-Tyr^1-Tyr^2-Tyr^3-D-Trp-Lys-Thr-Tyr^7-Thr-NH2] (H-[dY]YY[dW]KTYT-NH2) | 540 ± 27.2 | 1.02 | 0.64 |  |  |  |  |  | 
1400 ± 52.3 µM | 717 ± 20.8 | 1400 ± 20 | C[C@@H](O)[C@H](NC(=O)[C@H](Cc1ccccc1)NC(=O)[C@@H](NC(=O)[C@H](CCCCN)NC(=O)[C@@H](Cc1c[nH]c2ccccc12)NC(=O)[C@H](Cc1ccc(O)cc1)NC(=O)[C@H](Cc1ccc(O)cc1)NC(=O)[C@H](N)Cc1ccccc1)[C@@H](C)O)C(N)=O [D101, D-Phe-Tyr^2-Tyr^3-D-Trp-Lys-Thr-Phe-Thr-NH2] (H-[dF]YY[dW]KTFT-NH2) | 604 ± 24.7 | 0.84 | 0.43 |  |  |  |  |  | > 1000
483 ± 33.9 µM | 235 ± 14.3 | 241 ± 13.4 | C[C@@H](O)[C@H](NC(=O)[C@H](Cc1ccc(O)cc1)NC(=O)[C@@H](NC(=O)[C@H](CCCCN)NC(=O)[C@@H](Cc1c[nH]c2ccccc12)NC(=O)[C@H](Cc1ccccc1)NC(=O)[C@H](Cc1ccccc1)NC(=O)[C@H](N)Cc1ccccc1)[C@@H](C)O)C(N)=O [DD8, D-Phe-Phe-Phe-D-Trp-Lys-Thr-Tyr^7-Thr-NH2] (H-[dF]FF[dW]KTYT-NH2) | 161 ± 7.97 | 0.69 | 0.67 |  |  |  |  |  | 

The next lines start with the molecule.

SMILES | IC50 at 24 h (in vitro) | IC50 [2] [µM] | IC50 [3] [µM] | IC50 [1] [µM] | Selectivity index SI, MCF-7 ([2]; 2 h) | Selectivity index SI, MDA-MB-231 ([3]; 2 h) | IC50 [1, 4] [µM] | IC50 [2, 5] [µM] | IC50 [3, 6] [µM] | Selectivity index SI, MCF-7 ([2]; SI = IC50 MCF-10A/IC50 MCF-7) | Selectivity index SI, MDA-MB-231 [3, 7] | IC50 at 24 h (in vitro; [8]) [µM]
N.N.[Cl][Pt][Cl] [Cisplatin, reference compound] |  |  |  |  |  |  | 64.3 ± 2.11 | 43.1 ± 3.16 | 6.94 ± 0.47 |  |  | 
C[C@@H](O)[C@H](NC(=O)[C@H](Cc1ccccc1)NC(=O)[C@@H](NC(=O)[C@H](CCCCN)NC(=O)[C@@H](Cc1c[nH]c2ccccc12)NC(=O)[C@H](Cc1ccc(O)cc1)NC(=O)[C@H](Cc1ccc(O)cc1)NC(=O)[C@@H](N)Cc1ccc(O)cc1)[C@@H](C)O)C(N)=O [D6, L-Tyr^1-Tyr^2-Tyr^3-D-Trp-Lys-Thr-Phe-Thr-NH2] (H-YYY[dW]KTFT-NH2) | > 1000 µM and 1320 µM |  |  |  |  |  | 191 ± 6.8 | 359 ± 16.1 | 291 ± 12.7 | 0.53 | 0.66 | 
C[C@@H](O)[C@H](NC(=O)[C@H](Cc1ccc(O)cc1)NC(=O)[C@@H](NC(=O)[C@H](CCCCN)NC(=O)[C@@H](Cc1c[nH]c2ccccc12)NC(=O)[C@H](Cc1ccccc1)NC(=O)[C@H](Cc1ccc(O)cc1)NC(=O)[C@@H](N)Cc1ccc(O)cc1)[C@@H](C)O)C(N)=O [D7, L-Tyr^1-Tyr^2-Phe-D-Trp-Lys-Thr-Tyr^7-Thr-NH2] (H-YYF[dW]KTYT-NH2) | 737 ± 20 µM |  |  |  |  |  | 433 ± 23.2 | 403 ± 24.9 | 782 ± 19 | 1.07 | 0.55 | 
C[C@@H](O)[C@H](NC(=O)[C@H](Cc1ccc(O)cc1)NC(=O)[C@@H](NC(=O)[C@H](CCCCN)NC(=O)[C@@H](Cc1c[nH]c2ccccc12)NC(=O)[C@H](Cc1ccc(O)cc1)NC(=O)[C@H](Cc1ccc(O)cc1)NC(=O)[C@@H](N)Cc1ccc(O)cc1)[C@@H](C)O)C(N)=O [D9, L-Tyr^1-Tyr^2-Tyr^3-D-Trp-Lys-Thr-Tyr^7-Thr-NH2] (H-YYY[dW]KTYT-NH2) | > 1000 µM and 1430 µM |  |  |  |  |  | 395 ± 15.3 | 477 ± 31.4 | 1410 ± 19.1 | 0.83 | 0.28 | 
C[C@@H](O)[C@H](NC(=O)[C@H](Cc1ccccc1)NC(=O)[C@@H](NC(=O)[C@H](CCCCN)NC(=O)[C@@H](Cc1c[nH]c2ccccc12)NC(=O)[C@H](Cc1ccccc1)NC(=O)[C@H](Cc1ccccc1)NC(=O)[C@H](N)Cc1ccc(O)cc1)[C@@H](C)O)C(N)=O [D11, D-Tyr^1-Phe-Phe-D-Trp-Lys-Thr-Phe-Thr-NH2] (H-[dY]FF[dW]KTFT-NH2) | > 1000 µM and 1630 µM |  |  |  |  |  | 864 ± 52.3 | 873 ± 26.6 | 1720 ± 58.6 | 0.99 | 0.50 | 
